Patent publication US20260022340A1, “ATRIOVENTRICULAR NODE-LIKE PACEMAKER CELLS” (UNIVERSITY HEALTH NETWORK, priority 2022, published 2026)

Tested on: human cardiac progenitors
Experiment: Induction of AVN phenotype in hPSC-derived cardiac progenitors, flow cytometry for NKX2-5+TBX3+ myocytes at day 20
Format: cell-based
Method: First, hPSCs were incubated in media containing BMP and Rho-associated protein kinase (ROCK) inhibitor on an orbital shaker to generate embryoid bodies (differentiation protocol day: 0). Then, cardiogenic mesoderm was induced using media containing 1-100 ng/mL BMP4, 1-100 ng/ml Activin A, 1-20 ng/mL bFGF, and 1-10 μM CHIR-99021 (differentiation protocol day: 1). […] The cardiogenic mesoderm can be analyzed at day 3/4 of differentiation for the expression of PDGFRa, RALDH2 and CD235a, and should be PDGFRa+RALDH2− and CD235a^low (max 50% positive).
Next, cardiac progenitors were induced using media that contained 0.5-10 μM IWP2 and 1-20 ng/mL VEGF (differentiation protocol day: 3). At this stage, the cardiac progenitors may be a mixed population of early stage (NKX2-5^−) and late stage (NKX2-5^+) cardiac progenitors which may be contractile or not. […] Culture was continued in media that contained 5 ng/mL VEGF until day 12 of the differentiation protocol. The culture was maintained until day 20 of the differentiation protocol before analysis. […] FIGS. 3B, 4B, 5A and 5B present the percentage of NKX2-5^+ TBX3^+ myocytes of total cells present in the culture.
A NKX2-5:GFP+TBX3:tdTomato+ transgenic double reporter hPSC line was cultured using the protocol described in Example 1. AVNLPCs were identified and isolated using Fluorescence-activated cell sorting (FACS), based on their expression of NKX2-5 and TBX3 and the associated expression of the fluorescent reporter (FIG. 2).

SMILES: Cc1c[nH]c(-c2cnc(NCCNc3ccc(C#N)cn3)nc2-c2ccc(Cl)cc2Cl)n1 [CHIR-99021]
- Change in NKX2-5+TBX3+ AVNLPCs of total cell population at day 20 (9 uM CHIR from day 8-11, day 11-15 or day 15-18, n=5 (FIG. 3B)): significant increase
- CHIR-99021 concentration at which relatively more NKX2-5+TBX3+ myocytes were induced (3-15 μM used): 12 to 15 µM
- CHIR concentration giving highest percentage of NKX2-5+TBX3+ AVNLPCs (treatment day 8-11, day 20 analysis, n=5 (FIG. 4B)): 12 to 15 µM
